In PubChem BioAssay AID463206 (Broad Institute, 2010):
Several values for one entry are separate records, joined by “and”; a condition that tells them apart may be missing. Identical values can stand only once. Activity calls are given as the source filed them.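 Rule for the calls: active = caspase luminescence falls with dose and the half-maximal concentration AC50 from the fitted curve is at or below a set limit; inconclusive = flat fit at 30 to 70% signal loss, or invalid fit; inactive = AC50 above the limit, or signal rises instead.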

Each molecule was assayed on INS-1E cytokine-induced caspase-3/7, Caspase-Glo luminescence, 48 h (assay: suppression of cytokine-driven beta-cell apoptosis – INS-1E rat cells, luminescence, orthogonal assay for beta-cell apoptosis protection project, dose response (AID 463206)).
`COc1ccc(N/N=C/c2c(C(=O)O)ccc3ccccc23)cc1` was tested, and the AC50 was > 26 µM (inactive). In the case of `COc1cc(/C=C2\CC(C(C)(C)C)C/C(=C\c3cc(OC)c(OC)c(OC)c3)C2=O)cc(OC)c1OC` (centres undefined), the AC50 is reported as > 26 µM (inactive). With `Cc1nn(Cc2c(Cl)cccc2Cl)c(C)c1NC(=O)c1cn(-c2ccccc2)nc1-c1ccccc1` the AC50 was > 26 µM (inactive). `O=c1cnnc(N/N=C/c2ccccn2)[nH]1` was tested, and the AC50 was > 26 µM (inactive). `Cc1nc2cc(-c3ccccc3)sc2c(=O)n1N` was tested, and the AC50 was > 26 µM (inactive). With `COc1ccc2c(c1)c(/C=N/Nc1nc3ccccc3[nH]1)c(C)n2C` the AC50 was > 26 µM (inactive). `O=[N+]([O-])c1cc(Cl)cc(/C=N\Nc2ccccn2)c1O` was tested, and the AC50 was > 26 µM (inactive). With `S=C(c1cn(CCOc2cccc3ccccc23)c2ccccc12)N1CCCC1` the AC50 was > 26 µM (inactive). For `O=C(NCc1nc(-c2ccc(C(F)(F)F)cc2)no1)Nc1cc(Cl)cc(Cl)c1`, the AC50 was > 26 µM (inactive). With `N#Cc1ccc(C(=O)Nc2nc(-c3cccs3)c(C(=O)C(F)(F)F)s2)cc1` the AC50 was > 26 µM (inactive). With `COc1ccc(C(NC(C)=O)c2ccc3cccnc3c2O)c(OC)c1` (centres undefined) the AC50 was > 26 µM (inactive). `CCOC(=O)c1c(CSc2nc(C)cc(C)c2C#N)n(C)c2cc(Br)c(OC(C)=O)cc12` was tested, and the AC50 was > 26 µM (inactive). For `S=C(NCCCN1CCOCC1)N1CCN(c2nc(-c3ccc(Cl)cc3)cs2)CC1`, the AC50 was > 12 µM (inactive). In the case of `CCOC(=O)N1CCN(S(=O)(=O)c2ccc(C(=O)NNc3nc4c(C)cc(C)cc4s3)cc2)CC1`, the AC50 is reported as > 26 µM (inactive). For `CC(=O)Oc1c(C)cc(Cl)cc1C(=O)Nc1ccc([N+](=O)[O-])cc1Cl`, the AC50 was > 26 µM (inactive). For `O=C(NC(Nc1nc2ccc([N+](=O)[O-])cc2s1)(C(F)(F)F)C(F)(F)F)c1cccnc1`, the AC50 was > 26 µM (inactive). In the case of `Cc1[nH]n(-c2ccccc2)c(=O)c1/C=N\NC(=O)C1COc2ccccc2O1` (centres undefined), the AC50 is reported as > 26 µM (inactive). `COc1ccc(C(=O)/C(C#N)=N/Nc2ccc([N+](=O)[O-])cc2)cc1` was tested, and the AC50 was > 26 µM (inactive). In the case of `O=C(Oc1c(CN2CCOCC2)cc(Cl)c2cccnc12)c1ccccc1Br`, the AC50 is reported as > 26 µM (inactive). In the case of `Cc1cccc2nc(CSc3nc4[nH]ncc4c(=O)n3-c3cccc(Cl)c3)cc(=O)n12`, the AC50 is reported as > 26 µM (inactive). With `CN(C)S(=O)(=O)c1cccc(NC(=S)N/N=C/c2cc(Br)ccc2O)c1` the AC50 was > 26 µM (inactive). `CCCCCCCCCn1ccc(=N)cc1` was tested, and the AC50 was > 26 µM (inactive). `Cc1ccc(C(C)C)c(OCc2ccc(C(=O)N/N=C/c3cccc(O)c3O)cc2)c1` was tested, and the AC50 was > 26 µM (inactive). `c1ccc(CNc2nc(-c3ccccn3)nc3ccccc23)cc1` was tested, and the AC50 was > 26 µM (inactive). `CC(C)OCCCNc1ncnc2c1[nH]c1ccc(F)cc12` was tested, and the AC50 was > 26 µM (inactive). For `Cc1cc(C)nc(SCC(=O)NC2=NN=C(c3ccc(Br)cc3)CS2)n1`, the AC50 was > 26 µM (inactive). For `O=C(NN=C(c1ccccc1)c1ccccn1)c1ccccc1`, the AC50 was > 26 µM (inactive). In the case of `COc1ccccc1-n1c(=O)oc2ccc(Cl)cc2c1=O`, the AC50 is reported as > 26 µM (inactive). With `Cc1ccc(C(=O)N2N=C(c3ccc(Br)cc3)CC2c2ccccc2O)cc1` (centres undefined) the AC50 was > 26 µM (inactive). In the case of `Cc1ccc(C(=O)NC(=S)/C=C2\N(C)c3ccccc3C2(C)C)cc1`, the AC50 is reported as > 26 µM (inactive). With `COc1cccc(/C=N/NC(=O)C(=O)Nc2ccccc2OC(F)(F)C(F)F)c1O` the AC50 was > 26 µM (inactive). `COc1cc(OC)c(NC2=CC(=O)C(=O)c3ccccc32)cc1Cl` was tested, and the AC50 was > 26 µM (inactive). With `COc1ccc(N/N=C(/N=Nc2nc(C)cc(=O)[nH]2)c2ccccc2)cc1` the AC50 was > 26 µM (inactive). In the case of `Cc1ccccc1/C=N/Nc1ccnc2cc(Cl)ccc12`, the AC50 is reported as > 26 µM (inactive). `COc1cccc(/C=N/Nc2ncnc3scc(-c4ccccc4)c23)c1O` was tested, and the AC50 was > 26 µM (inactive). In the case of `CCN1CCN(Cc2ccc(NC(=O)c3ccc(C)c(NC(=O)C(=O)c4c[nH]c5ccccc45)c3)cc2C(F)(F)F)CC1`, the AC50 is reported as > 12 µM (inactive) and > 26 µM (inactive). With `COc1cccc(C(=O)N/N=C(/c2ccccc2)c2ccccn2)c1` the AC50 was > 26 µM (inactive). With `CCC(C)Sc1cccc(-c2nc3ccc(C)cn3c2NCc2ccccc2)c1` (centres undefined) the AC50 was > 26 µM (inactive). `CC(=O)NC(c1ccccc1)c1cc(Cl)c2cccnc2c1O` (centres undefined) was tested, and the AC50 was > 26 µM (inactive). `O=C(/C(=C/c1cccc(Cl)c1)c1nc2ccccc2[nH]1)c1ccccc1` was tested, and the AC50 was > 26 µM (inactive). In the case of `O=C(/C=C/c1cccc(Cl)c1)c1ccc([N+](=O)[O-])o1`, the AC50 is reported as > 26 µM (inactive). `Cc1cc(C(=O)N/N=C/c2cc(N=Nc3ccccc3)ccc2O)n[nH]1` was tested, and the AC50 was > 26 µM (inactive). For `COc1ccccc1CNCC(O)Cn1c2ccccc2c2ccccc21` (centres undefined), the AC50 was > 26 µM (inactive). `CCCC(=O)NC(c1ccc(Cl)cc1)c1ccc2cccnc2c1O` (centres undefined) was tested, and the AC50 was > 26 µM (inactive). For `Cc1nc(N/N=C/c2ccccn2)sc1C`, the AC50 was > 26 µM (inactive). `COc1cc(CC(=O)Nc2nc(-c3ccc(F)c(F)c3)cs2)cc(OC)c1OC` was tested, and the AC50 was > 26 µM (inactive). `[O-][N+]1=c2ccc(Nc3ccccc3)cc2=NC12CCCCC2` was tested, and the AC50 was > 26 µM (inactive). For `CCOc1ccc(-n2c(-c3ccccc3)c[n+]3c2CCCCC3)cc1`, the AC50 was > 26 µM (inactive). For `CC1=C/C(=N\OS(=O)(=O)c2ccccc2)C(C(C)C)=CC1=O`, the AC50 was > 26 µM (inactive). For `Nc1c(N(CCC2=CCCCC2)C(=O)COc2ccc(F)cc2)c(=O)[nH]c(=O)n1Cc1ccccc1`, the AC50 was > 26 µM (inactive). In the case of `O=C(OCn1ncc(Br)c(Br)c1=O)c1ccccc1Cl`, the AC50 is reported as > 26 µM (inactive). In the case of `O=C(c1ccccc1)C(CN1CCCC1)c1ccccc1` (centres undefined), the AC50 is reported as > 26 µM (inactive). `O=C(c1ccco1)c1coc2c1cc(O)c1ccccc12` was tested, and the AC50 was > 26 µM (inactive). For `c1ccc(CN2CCN(Cc3c[nH]c4ccccc34)CC2)cc1`, the AC50 was > 26 µM (inactive). With `C[n+]1c2n(c3ccccc31)N=C(c1ccc(-c3ccccc3)cc1)CS2` the AC50 was > 26 µM (inactive). In the case of `COc1ccc(S(=O)(=O)Nc2ccc(O)c3ccccc23)cc1`, the AC50 is reported as > 26 µM (inactive). In the case of `CCOC(=O)c1c(C)[nH]c(C(=O)N/N=C\c2ccccc2O)c1C`, the AC50 is reported as > 26 µM (inactive). `CCn1c(SCC(=O)Nc2cc(C)on2)nc2sc3c(c2c1=O)CCCC3` was tested, and the AC50 was > 12 µM (inactive). `CCCNC(=O)c1c(N)n(-c2cccc(OC)c2)c2nc3ccccc3nc12` was tested, and the AC50 was > 26 µM (inactive). In the case of `Cc1ccc(Nc2c(-c3ccccn3)nc3cc(C)ccn23)cc1`, the AC50 is reported as > 26 µM (inactive). In the case of `Cc1cc(C)c(C)c(S(=O)(=O)N2CCN(c3ncnc4ccccc34)CC2)c1C`, the AC50 is reported as > 26 µM (inactive). With `CCOC(=O)C(=Cc1ccc(Br)cc1)C(=O)OCC` the AC50 was > 26 µM (inactive). In the case of `Oc1ccc(CN2CCCc3ccccc32)c2cccnc12`, the AC50 is reported as > 26 µM (inactive). `CC(C)CC(=O)NC(c1cccs1)c1ccc2cccnc2c1O` (centres undefined) was tested, and the AC50 was > 26 µM (inactive). With `COc1ccc2nc(C)cc(SCC(=O)N/N=C/c3ccc(O)cc3O)c2c1` the AC50 was > 26 µM (inactive). For `Cn1cc(/C=C/c2cc[n+](C)cc2)c2cc(Cl)ccc21`, the AC50 was > 26 µM (inactive). `Cc1ccccc1/C=C/C(=O)c1ccc([N+](=O)[O-])o1` was tested, and the AC50 was > 26 µM (inactive). In the case of `Cc1[nH]n(-c2ccccc2)c(=O)c1/C=N/NC(=O)COc1ccccc1[N+](=O)[O-]`, the AC50 is reported as > 26 µM (inactive). For `CCCCCCCCCCCCCCCC[N+](C)(C)CCN(Cc1ccc(OC)cc1)c1ncccn1`, the AC50 was > 26 µM (inactive). With `OCc1ccc(O)c2ncccc12` the AC50 was > 26 µM (inactive). `CCCCCCOc1ccc(CN2CCN(C)CC2)cc1` was tested, and the AC50 was > 26 µM (inactive). In the case of `CCCCCCCC[n+]1c(C)n(-c2ccccc2)c2ccc(NC(C)=O)cc21`, the AC50 is reported as > 26 µM (inactive). For `O=C(N/N=C\c1cc(Cl)ccc1O)c1ccc(S(=O)(=O)N2CCCCC2)cc1`, the AC50 was > 26 µM (inactive). For `COc1ccccc1N1CC(C)(C)C(=O)N(C(=O)c2ccc(Cl)cc2)C1=S`, the AC50 was > 12 µM (inactive). With `COc1ccc(-n2c(=S)[nH]c3cc(C(=O)Nc4ccccc4OC)ccc3c2=O)cc1` the AC50 was > 26 µM (inactive). For `Cc1cc(/C=N/n2cnnc2)c(C)n1-c1ccc(OCc2ccc(Cl)cc2Cl)cc1`, the AC50 was > 26 µM (inactive). `CC(=O)c1cccc(NS(=O)(=O)c2ccc(N/C=C/C(=O)c3ccc(F)cc3)cc2)c1` was tested, and the AC50 was > 26 µM (inactive). `CN(Cc1c(F)cccc1Cl)C(=O)c1cc2ccccc2o1` was tested, and the AC50 was > 26 µM (inactive). For `CC(C)CNC(=O)COC(=O)c1c2c(nc3ccccc13)/C(=C/c1cccs1)CC2`, the AC50 was > 26 µM (inactive). `CCN(CC)c1ccc(/C=N/Nc2nc(C)cc(C)n2)c(O)c1` was tested, and the AC50 was > 26 µM (inactive). `CC(=O)Oc1c(I)cc(I)cc1C(=O)Nc1ccc(Cl)cc1` was tested, and the AC50 was > 26 µM (inactive). For `Cn1c(NN=O)nc2ccccc21`, the AC50 was > 26 µM (inactive). `COc1ccc(-c2cn(-c3ccc(Cl)cc3)c3[n+]2CCCCC3)cc1` was tested, and the AC50 was > 26 µM (inactive). With `Cc1ccc(C)c(N=Nc2ccc(O)c3ncccc23)c1` the AC50 was > 26 µM (inactive). In the case of `Cc1ccc2c(c1)Sc1c(ccc3ccccc13)N2`, the AC50 is reported as > 26 µM (inactive). `C/C(=N\NC(=O)COc1ccccc1-c1ccccc1)c1ccccn1` was tested, and the AC50 was > 26 µM (inactive). With `Cc1ccc(S(=O)(=O)/N=C2\C=C(Nc3ccc(O)cc3)C(=O)c3ccccc32)cc1` the AC50 was > 26 µM (inactive). `Cc1cc(C)n(-c2nc(NC(C)(C)C)nc(NC(C)(C)C)n2)n1` was tested, and the AC50 was > 26 µM (inactive). `CCN1CCN(Cc2ccc(NC(=O)c3ccc(C)c(NC(=O)c4c[nH]c5cc(C(F)(F)F)ccc5c4=O)c3)cc2C(F)(F)F)CC1` was tested, and the AC50 was > 26 µM (inactive). With `O=C(Nc1ccc(Cl)cc1)c1nc[nH]c1C(=O)NCCN(CCNC(=O)c1[nH]cnc1C(=O)Nc1ccc(Cl)cc1)CCNC(=O)c1[nH]cnc1C(=O)Nc1ccc(Cl)cc1` the AC50 was > 26 µM (inactive). For `Cc1cc(C)cc(NC(=O)/C(C#N)=C/c2cn(CC(=O)NCc3ccco3)c3ccccc23)c1`, the AC50 was > 26 µM (inactive). With `CCOc1ccc(CN2CCN(Cc3c[nH]c4ccccc34)CC2)cc1` the AC50 was > 26 µM (inactive). In the case of `CCCCCCCCCCCCCCCC[N+](C)(C)CC`, the AC50 is reported as > 26 µM (inactive). For `Cc1cc(C)n(-c2nc(NCCO)c3c4c(sc3n2)CCCC4)n1`, the AC50 was > 26 µM (inactive).
